This is an account of results in patent US7943770B2, “Fused quinoline derivative and use thereof” (Takeda Pharmaceutical Company Limited, priority 2004, dated 2011).

One may read the IC50 as the concentration needed to halve the response being measured.

Bounds are passed on as bounds.

For the test, the target named is T1, hNK2 receptor (Homo sapiens, UniProt P21452).
T1 construct: host or cells: CHO cells
T1 sequence (P21452 1-398): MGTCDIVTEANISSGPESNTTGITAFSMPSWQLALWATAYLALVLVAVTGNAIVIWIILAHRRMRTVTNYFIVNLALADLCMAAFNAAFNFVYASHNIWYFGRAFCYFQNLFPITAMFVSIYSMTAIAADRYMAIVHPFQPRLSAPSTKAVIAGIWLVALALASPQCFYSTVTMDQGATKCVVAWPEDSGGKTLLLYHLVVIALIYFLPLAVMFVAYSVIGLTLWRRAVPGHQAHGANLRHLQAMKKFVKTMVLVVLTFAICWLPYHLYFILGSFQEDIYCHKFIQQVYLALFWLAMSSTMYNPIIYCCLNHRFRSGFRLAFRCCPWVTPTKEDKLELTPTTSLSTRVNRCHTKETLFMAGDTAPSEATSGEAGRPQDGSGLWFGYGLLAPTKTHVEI
Kind of test: Radio-ligand ([125I]-NKA) receptor binding inhibitory activity using membrane fraction of hNK2 receptor-expressing CHO cell. The note with it: membrane fraction of hNK2 receptor-expressing CHO cells, 25° C., 30 min. The method, then: hNK2 receptor-expressing CHO cells (produced by EUROSCREEN) were cultured in HAM-F12 medium containing 400 μg/ml Geneticin, 100 U/mL penicillin, 100 μg/mL streptomycin and 10% inactivated serum. The medium was removed and adhered cells were washed with PBS, and PBS containing 5 mM EDTA was added to detach the cells from the flask. The cells were recovered by centrifugation, suspended in suspending buffer A (15 mM Tris-HCl (pH 7.5), 2 mM MgCl2, 0.3 mM EDTA, 1 mM EGTA), disrupted by POLYTRON homogenizer (manufactured by KINEMATICA) and centrifuged at 800×g for 10 min. The supernatant was recovered and ultracentrifuged at 100000×g for 25 min. The precipitated fraction was suspended in suspending buffer B (7.5 mM Tris-HCl (pH 7.5), 12.5 mM MgCl2, 0.3 mM EDTA, 1 mM, […], 250 mM Sucrose) and cryopreserved (at −80° C.) as a receptor specimen.
An assay buffer (50 μl, 50 mM Tris-HCl (pH 7.4), 0.02% bovine serum albumin, 2 μg/mL chymostatin, 40 μg/mL bacitracin, 40 μg/mL APMSF, 3 mM MnCl2) was added to a 96 well microassay plate. Thereto was added a 20 μg/mL membrane specimen suspended in the assay buffer (50 μL). An assay buffer (50 μL) containing 2% dimethyl sulfoxide was added to examine the total binding, 4 unlabeled NKA (produced by Peptide Institute, Inc.) solution (50 μL) diluted with an assay buffer containing 2% dimethyl sulfoxide was added to examine non-specific binding, and a test compound diluted with an assay buffer (50 containing 2% dimethyl sulfoxide) was added to examine the binding inhibitory activity of the test compound. Furthermore, […] [^125I]-NKA (produced by Amersham Biosciences) solution (50 μL) was added to each well.
After reaction at 25° C. for 30 min., the reaction was stopped by rapid filtration on a unifilter plate (GF/C) (manufactured by PerkinElmer) using a cell harvester (manufactured by PerkinElmer) and the cells were washed 5 times with 50 mM Tris-HCl (pH 7.4) buffer containing 0.02% bovine serum albumin (250 μL). The GF/C filter plate was dried and 20 μl, of MicroScinti-O (manufactured by PerkinElmer) was added and the radioactivity was measured in Topcount (manufactured by PerkinElmer). The GF/C filter plate, which had been immersed in 0.3% polyethyleneimine for one day, was used. Specific binding is shown by the value obtained by subtracting non-specific binding from the total binding. The binding inhibitory activity of the test compound is shown by the ratio of the value obtained by subtracting the measured value associated with the addition of the test compound from the total binding, to the value of the specific binding.
With `COC[C@@H]1Nc2ccccc2[C@H]2[C@@H]1CCN2C(=O)[C@H]1CCCC[C@H]1NC(=O)c1ccc(N2CCSCC2)cc1` [Example 291, N-((1R,2S)-2-{[(3aR,4R,9bR)-4-(Methoxymethyl)-2,3,3a,4,5,9b-hexahydro-1H-pyrrolo[3,2-c]quinolin-1-yl]carbonyl}cyclohexyl)-4-thiomorpholin-4-ylbenzamide], the IC50 was less than 1 nM.

Molecule `O=C(N[C@@H]1CCCC[C@@H]1C(=O)N1CC[C@@H]2[C@H](c3ncc[nH]3)Nc3ccccc3[C@@H]21)c1ccccc1` [Example 81, N-((1R,2S)-2-{[(3aR,4R,9bR)-4-(1H-imidazol-2-yl)-2,3,3a,4,5,9b-hexahydro-1H-pyrrolo[3,2-c]quinolin-1-yl]carbonyl}cyclohexyl)benzamide] showed an IC50 of less than 1 nM. Molecule `COC[C@@H]1Nc2ccccc2[C@H]2[C@@H]1CCN2C(=O)[C@H]1CCCC[C@H]1NC(=O)Nc1ccc2c(c1)OCO2` [Example 208, N-1,3-Benzodioxol-5-yl-N′-((1R,2S)-2-{[(3aR,4R,9bR)-4-(methoxymethyl)-2,3,3a,4,5,9b-hexahydro-1H-pyrrolo[3,2-c]quinolin-1-yl]carbonyl}cyclohexyl)urea] yielded an IC50 of less than 1 nM.

Regarding `CC(C)NC(=O)N[C@@H]1CCCC[C@@H]1C(=O)N1CC[C@@H]2[C@H](c3ccccc3)Nc3ccccc3[C@@H]21` [Example 152, N-Isopropyl-N′-((1R,2S)-2-{[(3aR,4R,9bR)-4-phenyl-2,3,3a,4,5,9b-hexahydro-1H-pyrrolo[3,2-c]quinolin-1-yl]carbonyl}cyclohexyl)urea], the IC50 is less than 10 nM. The molecule `O=C(N[C@@H]1C2CCC(CC2)[C@@H]1C(=O)N1CC[C@@H]2[C@H](c3ccccc3)Nc3ccccc3[C@@H]21)c1ccccc1` [Example 178, N-((2R,3S)-3-{[(3aR,4R,9bR)-4-Phenyl-2,3,3a,4,5,9b-hexahydro-1H-pyrrolo[3,2-c]quinolin-1-yl]carbonyl}bicyclo[2.2.2]oct-2-yl)benzamide] returned an IC50 of less than 10 nM.

`O=C(Nc1ccccc1)N[C@@H]1CCCC[C@@H]1C(=O)N1CC[C@@H]2[C@H](c3ccsc3)Nc3ccccc3[C@@H]21` [Example 186, N-Phenyl-N′-((1R,2S)-2-{[(3aR,4R,9bR)-4-(3-thienyl)-2,3,3a,4,5,9b-hexahydro-1H-pyrrolo[3,2-c]quinolin-1-yl]carbonyl}cyclohexyl)urea] returned an IC50 of less than 1 nM. Molecule `COc1ccc(/C=C/C(=O)N[C@@H]2CCCC[C@@H]2C(=O)N2CC[C@@H]3[C@H](c4ccccc4)Nc4ccccc4[C@@H]32)cc1` [Example 105, (2E)-3-(4-Methoxyphenyl)-N-((1R,2S)-2-{[(3aR,4R,9bR)-4-phenyl-2,3,3a,4,5,9b-hexahydro-1H-pyrrolo[3,2-c]quinolin-1-yl]carbonyl}cyclohexyl)acrylamide] registered an IC50 of less than 1 nM. The figure for `O=C(NC1(CC(=O)N2CC[C@@H]3[C@H](c4ccccc4)Nc4ccccc4[C@@H]32)CCCCC1)c1ccccc1` (relative stereo) [Example 312, N-(1-{2-oxo-2-[(3aR*,4R*,9bR*)-4-phenyl-2,3,3a,4,5,9b-hexahydro-1H-pyrrolo[3,2-c]quinolin-1-yl]ethyl}cyclohexyl)benzamide] is less than 10 nM; for `N#Cc1ccc(NC(=O)N[C@@H]2CCCC[C@@H]2C(=O)N2CC[C@@H]3[C@H](c4ccccc4)Nc4ccccc4[C@@H]32)cc1` [Example 147, N-(4-Cyanophenyl)-N′-((1R,2S)-2-{[(3aR,4R,9bR)-4-phenyl-2,3,3a,4,5,9b-hexahydro-1H-pyrrolo[3,2-c]quinolin-1-yl]carbonyl}cyclohexyl)urea] it is less than 10 nM; for `O=C(CCCCCO)N[C@@H]1CCCC[C@@H]1C(=O)N1CC[C@@H]2[C@H](c3ccccc3)Nc3ccccc3[C@@H]21` [Example 119, 6-Hydroxy-N-((1R,2S)-2-{[(3aR,4R,9bR)-4-phenyl-2,3,3a,4,5,9b-hexahydro-1H-pyrrolo[3,2-c]quinolin-1-yl]carbonyl}cyclohexyl)hexanamide] it is less than 10 nM. The figure for `O=C(N[C@@H]1CCCC[C@@H]1C(=O)N1CC[C@@H]2[C@H](c3ncc[nH]3)Nc3ccccc3[C@@H]21)c1ccccc1F` [Example 302, 2-Fluoro-N-((1R,2S)-2-{[(3aR,4R,9bR)-4-(1H-imidazol-2-yl)-2,3,3a,4,5,9b-hexahydro-1H-pyrrolo[3,2-c]quinolin-1-yl]carbonyl}cyclohexyl)benzamide] is less than 1 nM; for `CCC[C@@H]1Nc2ccccc2[C@H]2[C@@H]1CCN2C(=O)[C@H]1CCCC[C@H]1NC(=O)Nc1ccc2c(c1)OCO2` [Example 200, N-1,3-Benzodioxol-5-yl-N′-((1R,2S)-2-{[(3aR,4S,9bR)-4-propyl-2,3,3a,4,5,9b-hexahydro-1H-pyrrolo[3,2-c]quinolin-1-yl]carbonyl}cyclohexyl)urea] it is less than 1 nM; for `COC[C@@H]1Nc2ccccc2[C@H]2[C@@H]1CCN2C(=O)[C@H]1CCCC[C@H]1NC(=O)c1ccc(N(C)CCO)cc1` [Example 270, 4-[(2-Hydroxyethyl) (methyl)amino]-N-((1R,2S)-2-{[(3aR,4R,9bR)-4-(methoxymethyl)-2,3,3a,4,5,9b-hexahydro-1H-pyrrolo[3,2-c]quinolin-1-yl]carbonyl}cyclohexyl)benzamide] it is less than 10 nM.

For `O=C(N[C@@H]1CCCC[C@@H]1C(=O)N1CC[C@@H]2[C@H](c3ccccc3)Nc3ccccc3[C@@H]21)c1ccc(F)cc1` [Example 92, 4-Fluoro-N-((1R,2S)-2-{[(3aR,4R,9bR)-4-phenyl-2,3,3a,4,5,9b-hexahydro-1H-pyrrolo[3,2-c]quinolin-1-yl]carbonyl}cyclohexyl)benzamide], the 50% inhibitory concentration (IC50) was less than 10 nM. The figure for `COC[C@@H]1Nc2ccccc2[C@H]2[C@@H]1CCN2C(=O)[C@H]1CCCC[C@H]1NC(=O)c1ccc(C#N)cc1` [Example 216, 4-Cyano-N-((1R,2S)-2-{[(3aR,4R,9bR)-4-(methoxymethyl)-2,3,3a,4,5,9b-hexahydro-1H-pyrrolo[3,2-c]quinolin-1-yl]carbonyl}cyclohexyl)benzamide] is less than 10 nM.

`O=C(Nc1ccc(Cl)cc1)N[C@@H]1CCCC[C@@H]1C(=O)N1CC[C@@H]2[C@H](c3ccccc3)Nc3ccccc3[C@@H]21` [Example 136, N-(4-Chlorophenyl)-N′-((1R,2S)-2-{[(3aR,4R,9bR)-4-phenyl-2,3,3a,4,5,9b-hexahydro-1H-pyrrolo[3,2-c]quinolin-1-yl]carbonyl}cyclohexyl)urea]: the IC50 was less than 10 nM. The value for `O=C(N[C@@H]1CCCC[C@@H]1C(=O)N1CC[C@@H]2[C@H](c3cc[nH]c3)Nc3ccccc3[C@@H]21)c1ccccc1` (relative stereo) [Example 52, N-((1R,2S)-2-{[(3aR*,4R*,9bR*)-4-(1H-Pyrrol-3-yl)-2,3,3a,4,5,9b-hexahydro-1H-pyrrolo[3,2-c]quinolin-1-yl]carbonyl}cyclohexyl)benzamide] was less than 10 nM. The molecule `COCCCNC(=O)N[C@@H]1CCCC[C@@H]1C(=O)N1CC[C@@H]2[C@H](c3ccccc3)Nc3ccccc3[C@@H]21` [Example 161, N-(3-Methoxypropyl)-N′-((1R,2S)-2-{[(3aR,4R,9bR)-4-phenyl-2,3,3a,4,5,9b-hexahydro-1H-pyrrolo[3,2-c]quinolin-1-yl]carbonyl}cyclohexyl)urea] displayed a 50% inhibitory concentration (IC50) of less than 10 nM. The figure for `COC[C@@H]1Nc2ccccc2[C@H]2[C@@H]1CCN2C(=O)[C@H]1CCCC[C@H]1NC(=O)c1ccccc1` (relative stereo) [Example 51, N-((1R,2S)-2-{[(3aR*,4R*,9bR*)-4-(Methoxymethyl)-2,3,3a,4,5,9b-hexahydro-1H-pyrrolo[3,2-c]quinolin-1-yl]carbonyl}cyclohexyl)benzamide] is less than 10 nM.
